From patent US20260053764A1, “COMPOSITION FOR PREVENTING DETERIORATION IN COGNITIVE FUNCTION AND/OR IMPROVING COGNITIVE FUNCTION” (PHARMA FOODS INTERNATIONAL CO., LTD., priority 2020, published 2026)

Tested on: cognitive function of a human
Assay: Cognitrax test in placebo-controlled randomized double-blind clinical tests A and B
Type: in vivo
Parameters: Reaction time / Complex attention / Cognitive flexibility / Social acuity / Non-verbal reasoning / Working memory / Continuous attention / Simple attention: scale not given here
Excerpt: A Cognitrax test is known as such an examination that can assess a plurality of domains or items of cognitive function. The Cognitrax test is a cognitive function examination service practiced on the Web based on the cognitive function examination technique developed by CNS Vital Signs in the United States. In the Cognitrax test, among a total of 10 types of tests, which are verbal memory test, visual memory test, finger tapping test, symbol digit coding test (SDC test), Stroop test, shifting attention test, continuous performance test, perception of emotion test, reasoning test and four part continuous performance test, a test is carried out in accordance with the purpose of the examination to digitize the examination result regarding each of a total of 16 types of items at most, which are neurocognition index, composite memory, verbal memory, visual memory, psychomotor speed, reaction time, complex attention, cognitive flexibility, processing speed, executive function, social acuity, non-verbal reasoning, working memory, continuous attention, simple attention and motor speed.
Two types of placebo-controlled randomized double-blind two-group parallel comparison tests were carried out as clinical tests. […] Specifically, capsules comprising 100 mg of dextrin per capsule were used as the placebo food.
The screening examination was carried out to select 60 subjects for each test (a total of 120 subjects). MMSE (Mini Mental State Examination) is an examination for assessing the degree of progression of dementia or the like based on the score thereof with 30 as the perfect score, wherein dementia is suspected with a score of 23 or lower.
• (1) Japanese male and female at the age of 40 or higher • (2) People aware of reduction in cognitive function • (3) People who can continuously ingest the test food every day for 12 weeks • (4) People with an MMSE score of 24 or higher • (5) People who have received sufficient explanation of the purpose/content of the clinical test, have the ability to give consent, voluntarily applied to participate in the clinical test with sufficient understanding, and gave consent to the participation in the clinical test on paper
The total of 120 subjects were randomly divided into test A active group, test A placebo group, test B active group and test B placebo group with 30 subjects in each group. Each subject of the test A active group ingested two capsules of the active food, each subject of the test A placebo group ingested two capsules of the placebo food, each subject of the test B active group ingested one capsule of the active food and each subject of the test B placebo group ingested one capsule of the placebo food.
Each subject followed the schedule shown in the table below and ingested one or two of the assigned capsules together with water for 12 weeks from two weeks after the initial screening examination. All subjects had no particular instruction during the ingestion period and freely took their meals.
As shown with ● in the test schedule in Table 1, Cognitrax was carried out a total of five times, which are upon screening, before starting test food sample ingestion, after four weeks of ingestion, after eight weeks of ingestion and after twelve weeks of ingestion, and the RBANS neuropsychological test was carried out a total of two times, which are before staring test food ingestion and after twelve weeks of ingestion.

[1] = test A 200 mg, before ingestion
[2] = test A 200 mg, before ingestion, mean ± SD
[3] = test A, after eight weeks of ingestion

NCCCC(=O)O [GABA, γ-aminobutyric acid]
Cognition flexibility: difference between active food and placebo food groups (test A 200 mg, 4 w): 2.1
Complex attention: difference between active food and placebo food groups (test A 200 mg, 4 w): 0.6
Composite memory: difference between active food and placebo food groups (test A 200 mg, 4 w): −0.9
Continuous attention: difference between active food and placebo food groups (test A 200 mg, 4 w): 1.1
Executive function: difference between active food and placebo food groups (test A 200 mg, 4 w): 2.4
Motor speed: difference between active food and placebo food groups (test A 200 mg, 4 w): 6.0
Non-verbal reasoning: difference between active food and placebo food groups (test A 200 mg, 4 w): 4.2
Processing speed: difference between active food and placebo food groups (test A 200 mg, 4 w): 4.1
Psychomotor speed: difference between active food and placebo food groups (test A 200 mg, 4 w): 7.1
Reaction time: difference between active food and placebo food groups (test A 200 mg, 4 w): 5.0
Simple attention: difference between active food and placebo food groups (test A 200 mg, 4 w): 0.9
Social acuity: difference between active food and placebo food groups (test A 200 mg, 4 w): −2.2
Verbal memory: difference between active food and placebo food groups (test A 200 mg, 4 w): 0.2
Visual memory: difference between active food and placebo food groups (test A 200 mg, 4 w): −1.4
Working memory: difference between active food and placebo food groups (test A 200 mg, 4 w): 3.0
Cognitive flexibility (test A 200 mg, 4 w, mean ± SD): 104.4 ± 9.8
Executive function (test A 200 mg, 4 w, mean ± SD): 104.5 ± 9.8
Non-verbal reasoning (test A 200 mg, 4 w, mean ± SD): 102.6 ± 9.1
Reaction time (test A 200 mg, 4 w, mean ± SD): 99.3 ± 0.4
Simple attention (test A 200 mg, 4 w, mean ± SD): 100.2 ± 10.5
Social acuity (test A 200 mg, 4 w, mean ± SD): 93.2 ± 18.9
Working memory (test A 200 mg, 4 w, mean ± SD): 108.5 ± 11.2
Cognition flexibility: difference between active food and placebo food groups (test A 200 mg, 8 w): 4.6
Complex attention: difference between active food and placebo food groups (test A 200 mg, 8 w): 1.3
Composite memory: difference between active food and placebo food groups (test A 200 mg, 8 w): −2.9
Continuous attention: difference between active food and placebo food groups (test A 200 mg, 8 w): 5.6
Executive function: difference between active food and placebo food groups (test A 200 mg, 8 w): 4.9
Motor speed: difference between active food and placebo food groups (test A 200 mg, 8 w): 3.9
Non-verbal reasoning: difference between active food and placebo food groups (test A 200 mg, 8 w): −2.2
Processing speed: difference between active food and placebo food groups (test A 200 mg, 8 w): 3.5
Psychomotor speed: difference between active food and placebo food groups (test A 200 mg, 8 w): 5.2
Reaction time: difference between active food and placebo food groups (test A 200 mg, 8 w): −0.6
Simple attention: difference between active food and placebo food groups (test A 200 mg, 8 w): −0.3
Social acuity: difference between active food and placebo food groups (test A 200 mg, 8 w): −0.3
Verbal memory: difference between active food and placebo food groups (test A 200 mg, 8 w): −6.3
Visual memory: difference between active food and placebo food groups (test A 200 mg, 8 w): 1.4
Working memory: difference between active food and placebo food groups (test A 200 mg, 8 w): 7.2
Cognitive flexibility (test A 200 mg, 8 w, mean ± SD): 108.2 ± 8.6
Executive function (test A 200 mg, 8 w, mean ± SD): 108.5 ± 8.6
Non-verbal reasoning (test A 200 mg, 8 w, mean ± SD): 104.9 ± 12.5
Reaction time (test A 200 mg, 8 w, mean ± SD): 94.0 ± 21.9
Simple attention (test A 200 mg, 8 w, mean ± SD): 99.2 ± 14.9
Social acuity (test A 200 mg, 8 w, mean ± SD): 91.3 ± 20.8
Working memory (test A 200 mg, 8 w, mean ± SD): 113.4 ± 9.7
Cognition flexibility: difference between active food and placebo food groups (test A 200 mg, 12 w): 1.4
Complex attention: difference between active food and placebo food groups (test A 200 mg, 12 w): 1.7
Composite memory: difference between active food and placebo food groups (test A 200 mg, 12 w): −5.0
Continuous attention: difference between active food and placebo food groups (test A 200 mg, 12 w): 3.7
Executive function: difference between active food and placebo food groups (test A 200 mg, 12 w): 1.4
Motor speed: difference between active food and placebo food groups (test A 200 mg, 12 w): 6.1
Non-verbal reasoning: difference between active food and placebo food groups (test A 200 mg, 12 w): 6.8
Processing speed: difference between active food and placebo food groups (test A 200 mg, 12 w): 3.1
Psychomotor speed: difference between active food and placebo food groups (test A 200 mg, 12 w): 6.4
Reaction time: difference between active food and placebo food groups (test A 200 mg, 12 w): 5.5
Simple attention: difference between active food and placebo food groups (test A 200 mg, 12 w): 5.5
Social acuity: difference between active food and placebo food groups (test A 200 mg, 12 w): −8.0
Verbal memory: difference between active food and placebo food groups (test A 200 mg, 12 w): −3.1
Visual memory: difference between active food and placebo food groups (test A 200 mg, 12 w): −4.6
Working memory: difference between active food and placebo food groups (test A 200 mg, 12 w): 4.2
Cognitive flexibility (test A 200 mg, 12 w, mean ± SD): 107.5 ± 7.3
Continuous attention (test A 200 mg, 12 w, mean ± SD): 112.9 ± 8.2
Reaction time (test A 200 mg, 12 w, mean ± SD): 100.7 ± 10.4
Simple attention (test A 200 mg, 12 w, mean ± SD): 97.9 ± 17.0
Social acuity (test A 200 mg, 12 w, mean ± SD): 89.0 ± 23.1
Cognition flexibility: difference between active food and placebo food groups [1]: 4.4
Complex attention: difference between active food and placebo food groups [1]: 3.4
Composite memory: difference between active food and placebo food groups [1]: 5.6
Continuous attention: difference between active food and placebo food groups [1]: 3.3
Executive function: difference between active food and placebo food groups [1]: 4.5
Motor speed: difference between active food and placebo food groups [1]: 6.7
Non-verbal reasoning: difference between active food and placebo food groups [1]: 3.7
Processing speed: difference between active food and placebo food groups [1]: 3.6
Psychomotor speed: difference between active food and placebo food groups [1]: 7.1
Reaction time: difference between active food and placebo food groups [1]: 4.5
Simple attention: difference between active food and placebo food groups [1]: 2.2
Social acuity: difference between active food and placebo food groups [1]: −6.4
Verbal memory: difference between active food and placebo food groups [1]: 4.6
Visual memory: difference between active food and placebo food groups [1]: 4.0
Working memory: difference between active food and placebo food groups [1]: 3.5
Cognitive flexibility [2]: 102.5 ± 9.4
Complex attention [2]: 105.6 ± 9.8
Executive function [2]: 102.8 ± 9.0
Non-verbal reasoning [2]: 102.4 ± 14.9
Reaction time [2]: 96.6 ± 14.5
Simple attention [2]: 97.9 ± 17.4
Social acuity [2]: 87.9 ± 17.9
scores regarding continuous attention, GABA group compared to the placebo group [3]: significant improvement
scores regarding working memory, GABA group compared to the placebo group [3]: significant improvement
scores regarding reasoning, GABA group compared to the placebo group (test A, after twelve weeks of ingestion): significant improvement
